Measured values from US9000032B2, “Substituted cyclopentenes as therapeutic agents” (Allergan, Inc., priority 2013, dated 2015).

Experiments:
hEP2/Gqs5 = molecular target: T1, hEP2/Gqs5 (Homo sapiens, UniProt P43116); assay: FLIPR calcium signal, EP2; type: cell-based; conditions: HEK-293(EBNA) hEP2/Gqs5, read-out: EP2 Ca2+ EC50
T1 construct: expressed in transfected cells
Method: (§1) HEK-293(EBNA) cells, stably expressing one type or subtype of recombinant human prostaglandin receptors (prostaglandin receptors expressed: hDP/Gqs5; hEP1, hEP2/Gqs5; hEP3A/Gqi5; hEP4/Gqs5; hFP; hIP; hTP), were cultured in 100 mm culture dishes in high-glucose DMEM medium containing 10% fetal bovine serum, 2 mM I-glutamine, 250 μg/ml geneticin (G418) and 200 μg/ml hygromycin B as selection markers, and 100 units/ml penicillin G, 100 μg/ml streptomycin and 0.25 μg/ml amphotericin B.
(§2) Cells were seeded at a density of 5×10^4 cells per well in Biocoat® Poly-D-lysine-coated black-wall, clear-bottom 96-well plates (Becton-Dickinson) and allowed to attach overnight in an incubator at 37° C. Cells were then washed two times with HBSS-HEPES buffer (Hanks Balanced Salt Solution without bicarbonate and phenol red, 20 mM HEPES, pH 7.4) using a Denley Cellwash plate washer (Labsystems). After 45 minutes of dye-loading in the dark, using the calcium-sensitive dye Fluo-4 AM at a final concentration of 2 μM, plates were washed four times with HBSS-HEPES buffer to remove excess dye leaving 100 μl, in each well. Plates were re-equilibrated to 37° C. for a few minutes.
(§3) Cells were excited with an Argon laser at 488 nm, and emission was measured through a 510-570 nm bandwidth emission filter (FLIPR™, Molecular Devices, Sunnyvale, Calif.). Drug solution was added in a 50 μL volume to each well to give the desired final concentration. The peak increase in fluorescence intensity was recorded for each well. On each plate, four wells each served as negative (HBSS-HEPES buffer) and positive controls (standard agonists: BW245C (hDP); PGE2(hEP1, hEP2/Gqs5; hEP3A/Gqi5; hEP4/Gqs5); PGF2α (hFP); carbacyclin (hIP); U-46619 (hTP), depending on receptor). The peak fluorescence change in each drug-containing well was then expressed relative to the controls.
(§4) Compounds were tested in a high-throughput (HTS) or concentration-response (CoRe) format. In the HTS format, forty-four compounds per plate were examined in duplicates at a concentration of 10^−5 M. To generate concentration-response curves, four compounds per plate were tested in duplicates in a concentration range between 10^−5 and 10^−11. The duplicate values were averaged. In either, HTS or CoRe format each compound was tested on at least 3 separate plates using cells from different passages to give an n≧3.

EP4 receptors = molecular target: T2, EP4 receptors (Homo sapiens, UniProt P35408); assay: Radioligand binding, [3H]PGE2, EP4; conditions: [3H]PGE2 competition, HEK-293 cells expressing EP4; read-out: EP4 Ki EC50
T2 construct: expressed in transfected cells; membrane fraction
Method: (§5) HEK-293 cells stably expressing the human or feline FP receptor, or EP1, EP2, or EP4 receptors were washed with TME buffer, scraped from the bottom of the flasks, and homogenized for 30 sec using a Brinkman PT 10/35 polytron. TME buffer was added to achieve a final 40 ml volume in the centrifuge tubes (the composition of TME is 100 mM TRIS base, 20 mM MgCl2, […]; ION HCl is added to achieve a pH of 7.4).
(§6) The cell homogenate was centrifuged at 19000 rpm for 20 min at 4° C. using a Beckman Ti-60 rotor. The resultant pellet was resuspended in TME buffer to give a final 1 mg/ml protein concentration, as determined by Biorad assay. Radioligand binding competition assays vs. [^3H-]17-phenyl PGF2α (5 nM) were performed in a 100 μl volume for 60 min. Binding reactions were started by adding plasma membrane fraction. The reaction was terminated by the addition of 4 ml ice-cold TRIS-HCl buffer and rapid filtration through glass fiber GF/B filters using a Brandel cell harvester. The filters were washed 3 times with ice-cold buffer and oven dried for one hour.
(§7) [^3H-] PGE2 (specific activity 180 Ci mmol) was used as the radio ligand for EP receptors. [^3H] 17-phenyl PGF2α was employed for FP receptor binding studies. Binding studies employing EP1, EP2, EP4 and FP receptors were performed in duplicate in at least three separate experiments. A 200 μl assay volume was used. Incubations were for 60 min at 25° C. and were terminated by the addition of 4 ml of ice-cold 50 mM TRIS-HCl, followed by rapid filtration through Whatman GF/B filters and three additional 4 ml washes in a cell harvester (Brandel). Competition studies were performed using a final concentration of 5 nM [^3H]-PGE2, or 5 nM [^3H] 17-phenyl PGF2α and non-specific binding determined with 10^−5 M of unlabeled PGE2, or 17-phenyl PGF2α according to receptor subtype studied.

hEP4/Gqs5 = molecular target: T3, hEP4/Gqs5 (Homo sapiens, UniProt P35408); assay: FLIPR calcium signal, EP4; type: cell-based; conditions: HEK-293(EBNA) hEP4/Gqs5, read-out: EP4 Ca2+ EC50
T3 construct: expressed in transfected cells
Method: as §1, §2, §3
(§8) Compounds were tested in a high-throughput (HTS) or concentration-response (CoRe) format. […]

hDP/Gqs5 = molecular target: T4, hDP/Gqs5 (Homo sapiens, UniProt Q13258); assay: FLIPR calcium signal, DP; type: cell-based; conditions: NA listed after 'NA:', read-out: OTHER RECEPTORS Ca2+ EC50: DP
T4 construct: expressed in transfected cells
T4 sequence (Q13258 1-359): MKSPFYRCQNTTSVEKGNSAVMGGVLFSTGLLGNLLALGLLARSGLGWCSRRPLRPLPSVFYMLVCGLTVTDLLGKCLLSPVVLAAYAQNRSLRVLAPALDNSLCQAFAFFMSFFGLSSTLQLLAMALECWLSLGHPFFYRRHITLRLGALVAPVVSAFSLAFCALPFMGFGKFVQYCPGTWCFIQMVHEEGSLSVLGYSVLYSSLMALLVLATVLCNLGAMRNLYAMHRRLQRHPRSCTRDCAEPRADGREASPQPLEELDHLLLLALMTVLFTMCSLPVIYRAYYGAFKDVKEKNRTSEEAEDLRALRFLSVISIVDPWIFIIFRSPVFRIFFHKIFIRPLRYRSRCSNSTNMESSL
Method: as §1, §2, §3, §8

hEP3A/Gqi5 = molecular target: T5, hEP3A/Gqi5 (Homo sapiens, UniProt P43115); assay: FLIPR calcium signal, EP3; type: cell-based; conditions: read-out: OTHER RECEPTORS Ca2+ EC50: EP3
T5 construct: expressed in transfected cells
T5 sequence (P43115 1-390): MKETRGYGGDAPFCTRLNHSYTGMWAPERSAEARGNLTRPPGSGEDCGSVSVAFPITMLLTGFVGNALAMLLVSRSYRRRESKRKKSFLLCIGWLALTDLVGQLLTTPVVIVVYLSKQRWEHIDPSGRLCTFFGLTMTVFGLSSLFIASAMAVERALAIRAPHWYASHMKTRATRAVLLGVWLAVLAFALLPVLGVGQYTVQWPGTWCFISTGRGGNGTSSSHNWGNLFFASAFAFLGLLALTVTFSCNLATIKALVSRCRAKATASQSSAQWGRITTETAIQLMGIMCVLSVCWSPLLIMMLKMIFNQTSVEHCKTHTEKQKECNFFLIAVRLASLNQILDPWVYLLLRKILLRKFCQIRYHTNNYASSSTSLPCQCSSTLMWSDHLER
Method: as §1, §2, §3, §4

EP2 [1] = molecular target: T6, EP2 (Homo sapiens, UniProt P43116); assay: Competition radioligand binding, [3H]PGE2, EP2; set-up: expressed in transfected cells; membranes or whole cells; conditions: [3H]PGE2 competition, HEK 293 cells expressing human EP2
Method: Competition binding experiments were performed in a medium containing Hank's balanced salt solution, Hepes 20 mM, pH 7.3, membranes (˜[…] protein) or 2×10^5 cells from HEK 293 cells stably expressing human EP2 receptors, [^3H]PGE2 (10 nM) and various concentrations of test compounds in a total volume of 300 μl. Reaction mixtures were incubated at 23° C. for 60 min, and were filtered over Whatman GF IB filters under vacuum. Filters were washed three times with 5 ml ice-cold buffer containing 50 mM Tris/HCl (PH 7.3). Non-specific binding was estimated in the presence of excess unlabeled PGE2 (10 μM). Binding data fitted to the binding model for a single class of binding sites, using nonlinear regression analysis. IC50 values thus obtained were converted to Ki using the equation of Ki=(IC50/(1+[L]/KD) where [L] represents PGE2 concentration (10 nM) and KD the dissociation constant for [^3H]PGE2 at human EP2 receptors (40 nM).
as §5, §6, §7

EP2 [2] = molecular target: T6, EP2; assay: cAMP assay, HEK-EBNA cells expressing EP2; type: cell-based; set-up: expressed in transfected cells; host or cells: HEK-EBNA cells
Method: A 384-well drug plate was prepared to contain 6 test compounds, PGE2 and cAMP in 16 serial dilutions in triplicate, using a Biomek station. HEK-EBNA cells expressing a target PG receptor subtype (EP2 or EP4) were suspended in a stimulation buffer (HBSS, 0.1% BSA, 0.5 mM IBMX and 5 mM HEPES, pH 7.4) in a density of 10^4 cells/5 μL. The reaction was initiated by mixing 5 μL drug dilutions with 5 μL of HEK-EBNA cells in a well, carried out for 30 min at room temperature, and followed by the addition of 5 μL anti-cAMP acceptor beads in the control buffer with Tween-20 (25 mM NaCl, 0.03% Tween-20, 5 mM HEPES, pH 7.4). After 30 min in the dark at room temperature, the mixtures were incubated with 15 μL biotinylated-cAMP/strepavidin donor beads in Lysis/Detection buffer (0.1% BSA, 0.3% Tween-20 and 5 mM HEPES, pH 7.4) for 45 min at the room temperature. Fluorescence changes were read using a Fusion-alpha HT microplate reader.

T2 sequence (P35408 whole entry): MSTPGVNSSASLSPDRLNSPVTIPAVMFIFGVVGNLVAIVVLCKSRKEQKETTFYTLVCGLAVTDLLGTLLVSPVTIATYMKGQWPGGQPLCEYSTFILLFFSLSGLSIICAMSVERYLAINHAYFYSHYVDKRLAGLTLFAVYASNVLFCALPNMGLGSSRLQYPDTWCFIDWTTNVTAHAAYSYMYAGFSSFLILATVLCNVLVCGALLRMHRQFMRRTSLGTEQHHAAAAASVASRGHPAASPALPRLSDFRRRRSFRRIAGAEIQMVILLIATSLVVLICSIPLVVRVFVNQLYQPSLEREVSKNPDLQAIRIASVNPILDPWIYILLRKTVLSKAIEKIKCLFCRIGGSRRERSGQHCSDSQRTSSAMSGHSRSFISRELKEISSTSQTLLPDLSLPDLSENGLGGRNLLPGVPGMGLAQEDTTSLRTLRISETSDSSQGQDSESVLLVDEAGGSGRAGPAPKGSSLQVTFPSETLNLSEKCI
T3 sequence (P35408 whole entry): as above
T6 sequence (P43116 whole entry): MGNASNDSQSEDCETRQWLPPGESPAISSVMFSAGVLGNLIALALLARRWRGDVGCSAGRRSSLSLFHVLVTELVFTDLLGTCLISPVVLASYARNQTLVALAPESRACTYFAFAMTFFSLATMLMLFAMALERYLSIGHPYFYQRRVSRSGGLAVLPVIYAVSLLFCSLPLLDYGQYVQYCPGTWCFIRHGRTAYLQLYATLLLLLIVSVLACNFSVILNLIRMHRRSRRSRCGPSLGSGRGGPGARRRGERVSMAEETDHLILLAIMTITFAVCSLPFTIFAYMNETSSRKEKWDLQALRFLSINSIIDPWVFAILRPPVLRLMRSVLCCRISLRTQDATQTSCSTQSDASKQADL
T1 sequence (P43116 whole entry): as above

| SMILES | EC50 (hEP2/Gqs5) [nM] | Ki (EP4 receptors) [nM] | EC50 (hEP4/Gqs5) [nM] | EC50 (hDP/Gqs5) [nM] | EC50 (hEP3A/Gqi5) [nM] | Ki (EP2 [1]) [nM] | EC50 (EP2 [2]) [nM] |
| --- | --- | --- | --- | --- | --- | --- | --- |
| C#CC1=C(c2ccc(C(O)CCCCC)cc2)[C@@H](CCCc2ccc(C(=O)O)s2)CC1 (single isomer, unassigned) [compound 1] | 48 | 2820 | > 10000 | 7730 | 171 | 2 | 0.2 |
| C#CC1=C(c2ccc(C(O)CCCCC)cc2)[C@@H](CCCc2ccc(C(=O)O)s2)CC1 (single isomer, unassigned) [compound 2] | 22 | 712 |  | > 10000 | 1540 | 7 |  |
| CCCCCC(O)c1ccc(C2=C(C#CCO)CC[C@@H]2CCCc2ccc(C(=O)O)s2)cc1 (stereo partly shown) [compound 3] | 0.5 | 783 | > 10000 | 220 | 7400 | 17 | 1.5 |
| CCCCCC(O)c1ccc(C2=C(C#Cc3ccccc3)CC[C@@H]2CCCc2ccc(C(=O)O)s2)cc1 (stereo partly shown) [compound 4] | 513 | 8190 | > 10000 |  | 7080 | 2530 | 140 |
